Data on 38 compounds can be found in the OPERA property sets (Mansouri et al. 2018).

Each structure is given as a SMILES string.

Conditions in one data set: not given
In general, boiling point refers to the temperature at which the vapour pressure of the liquid equals the pressure above it. The melting point is the temperature of the solid-liquid transition. The compound `N#Cc1ccccc1Br` showed a boiling point of 252 °C and a melting point of 55.5 °C.

Consider `C=CCCCCCCCCCCCCCCC`, for which the boiling point was 300 °C, the log10 vapour pressure (mmHg) is -3.34 and the melting point was found to be 11.5 °C.

In the case of `CC(C)(N=C=O)c1ccc(C(C)(C)N=C=O)cc1`, the log10 vapour pressure (mmHg) is -3.12.

Turning to `O=C[C@H](O)[C@@H](O)[C@H](O[C@@H]1O[C@H](CO)[C@@H](O)[C@H](O)[C@H]1O)[C@H](O)CO`, the melting point is 240 °C.

The compound `O=[N+]([O-])c1cccc2ncccc12` showed a melting point of 74 °C.

`CCC(C(=O)O)c1ccc(CC(C)C)cc1` (centres undefined) came in with a melting point of 52 °C.

Take `COc1ccc(OC)c(C=O)c1`: the boiling point worked out at 270 °C and the melting point stood at 52 °C.

Compound `Cc1n[nH]c(C)c1Cl` registered a boiling point of 221 °C and a melting point of 118 °C.

For the compound `COc1cc(Cl)c(Cl)c(Cl)c1OC`, the melting point was 66 °C.

For the compound `CCNC(C)=O`, the boiling point worked out at 205 °C and the ready biodegradability result is “readily biodegradable”.

In the case of `OCCNc1ccccc1`, the boiling point worked out at 280 °C, the log10 vapour pressure (mmHg) is -2.66 and the melting point came to 11 °C.

Turning to `O=C(CN1CCN(Cc2ccc3c(c2)OCO3)CC1)N1c2ccccc2Sc2ccccc21`, the melting point amounted to 142 °C.

For `CCOc1ccc(NC(C)=O)cc1`, the boiling point is 244 °C, the log10 Koa was 9.59, the log10 vapour pressure (mmHg) was -6.16 and the melting point came to 138 °C. In addition, the ready biodegradability entry was “not readily biodegradable”.

With `Cc1cc(Cl)ccc1OCC(=O)O`, the boiling point was 287 °C, the log10 Koc (L/kg) turned out to be 1.73, the log10 vapour pressure (mmHg) is -5.23 and the melting point was 120 °C. The ready biodegradability result is listed as “not readily biodegradable”.

As for `Oc1c(Cl)cc(Cl)cc1Cl`, the log10 Koc (L/kg) came out at 3.03 and the ready biodegradability entry was “readily biodegradable”.

Regarding `O=c1[nH]c2ccccc2n1CCCN1CCN(C(c2ccccc2)c2ccccc2)CC1`, the melting point was found to be 154 °C.

In turn, `Nc1ccc2cc3ccc(N)cc3nc2c1` had a melting point of 285 °C.

With `CC1CCC(O)CC1C` (centres undefined), the boiling point amounted to 189 °C.

In the case of `CCCC(=O)OC(C)C`, the boiling point is 130 °C.

`COc1cc2c(c(OC)c1OC)-c1ccc(OC)c(=O)cc1[C@@H](NC(C)=O)CC2` registered a melting point of 156 °C.

`CON(C)C(=O)Nc1ccc(Cl)c(Cl)c1`: the log10 Koc (L/kg) was 2.7, the log10 vapour pressure (mmHg) is -5.84, the melting point worked out at 93 °C and the ready biodegradability entry is listed as “not readily biodegradable”.

`CC(=O)CC(=O)C(F)(F)F`: the boiling point stood at 106 °C.

For `NCCN1CCNCC1`, the boiling point turned out to be 220 °C and the ready biodegradability result is recorded as “not readily biodegradable”.

Consider `CCCC(C)(COC(N)=O)COC(=O)NC(C)C` (centres undefined), for which the melting point was 92 °C.

As to `COP(=S)(OC)SCn1nnc2ccccc2c1=O`, the log10 Koc (L/kg) was determined as 2.28, the log10 vapour pressure (mmHg) is -5.8, the melting point came out at 73 °C and the ready biodegradability entry was “readily biodegradable”.

Regarding `O=C(OOC(=O)c1ccc(Cl)cc1Cl)c1ccc(Cl)cc1Cl`, the melting point came out at 106 °C and the ready biodegradability entry is “not readily biodegradable”.

On to `S=C(S)NCCNC(=S)S`, for which the ready biodegradability result is reported as “not readily biodegradable”.

Take `CO[SiH](OC)OC`: the boiling point stood at 81 °C, the log10 vapour pressure (mmHg) was found to be 1.88 and the melting point is -115 °C.

In the case of `CC(C)c1cc(C(C)C)cc(C(C)C)c1`, the boiling point came to 238 °C and the melting point was -7.4 °C.

The compound `CCOC(=O)CCC=O` came in with a boiling point of 162 °C.

Turning to `Clc1cc2c(cc1Cl)Oc1c(Cl)c(Cl)cc(Cl)c1O2`, the log10 vapour pressure (mmHg) was -9.23 and the melting point came out at 206 °C.

For the compound `Clc1ccc(Oc2ccc(Cl)c(Cl)c2)cc1`, the log10 vapour pressure (mmHg) is -3.98.

The compound `CNC(=S)NC` displayed a melting point of 62 °C.

`CCCCCCN(CCCCCC)C(=O)COC(=O)c1ccccc1` showed a melting point of 162 °C.

Compound `CCN1C(=O)C=CC1=O` registered a melting point of 45.5 °C.

In turn, `N[C@H](CCS)C(=O)O` (racemic) returned a melting point of 226 °C.

`C1CCN2C[C@@H]3C[C@@H](CN4CCCC[C@@H]34)[C@H]2C1` gave a boiling point of 325 °C and a melting point of 30.5 °C.

`NS(=O)(=O)c1ccc(SCCCO)c(Cl)c1` registered a melting point of 127 °C.

Staying with this data set, now noted: fish.
As for `CCOc1ccc(NC(C)=O)cc1`, the log10 BCF stood at 1.48 and the log10 biotransformation half-life (days) is -0.55.

Take `Oc1c(Cl)cc(Cl)cc1Cl`: the log10 BCF came out at 1.94 and the log10 biotransformation half-life (days) was -0.57.

As to `CON(C)C(=O)Nc1ccc(Cl)c(Cl)c1`, the log10 BCF stood at 1.25 and the log10 biotransformation half-life (days) was -0.97.
